From ChEMBL document CHEMBL1137417, “Design, synthesis, and biological evaluation of hydroquinone derivatives of 17-amino-17-demethoxygeldanamycin as potent, water-soluble inhibitors of Hsp90” (J Med Chem, 2006)

How the values were obtained:
SK-OV-3 = assay: Inhibition of human SKOV3 cell growth; assay type: functional
SK-BR-3 = assay: Inhibition of human SKBR3 cell growth; assay type: functional
Endoplasmin = Endoplasmin (Canis lupus familiaris, UniProt P41148); assay: Inhibition of BODIPY-AG binding to dog Grp94
Sequence of Endoplasmin (P41148 whole entry): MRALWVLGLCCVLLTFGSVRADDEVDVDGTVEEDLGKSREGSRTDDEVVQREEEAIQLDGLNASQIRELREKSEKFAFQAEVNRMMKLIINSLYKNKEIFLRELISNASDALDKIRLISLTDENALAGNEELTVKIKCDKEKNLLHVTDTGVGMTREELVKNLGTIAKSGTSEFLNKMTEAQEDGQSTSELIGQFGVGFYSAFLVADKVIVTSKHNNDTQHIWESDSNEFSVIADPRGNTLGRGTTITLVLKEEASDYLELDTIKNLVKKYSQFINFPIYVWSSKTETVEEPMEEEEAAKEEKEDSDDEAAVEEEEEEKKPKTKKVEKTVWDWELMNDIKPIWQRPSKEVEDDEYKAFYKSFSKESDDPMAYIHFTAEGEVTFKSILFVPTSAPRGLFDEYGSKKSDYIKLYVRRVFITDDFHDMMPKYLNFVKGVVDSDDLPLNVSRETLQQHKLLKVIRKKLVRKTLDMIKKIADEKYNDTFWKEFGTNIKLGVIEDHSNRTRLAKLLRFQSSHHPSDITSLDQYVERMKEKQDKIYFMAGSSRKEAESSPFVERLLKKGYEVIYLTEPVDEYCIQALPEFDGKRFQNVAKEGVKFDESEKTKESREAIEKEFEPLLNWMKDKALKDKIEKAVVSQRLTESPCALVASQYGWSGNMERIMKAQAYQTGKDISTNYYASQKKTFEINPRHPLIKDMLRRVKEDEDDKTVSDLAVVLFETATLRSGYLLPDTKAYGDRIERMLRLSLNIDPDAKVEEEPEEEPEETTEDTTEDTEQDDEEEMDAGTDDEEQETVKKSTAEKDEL

Heat shock protein HSP90 [1] = molecular target: T1, Heat shock protein HSP90 (Homo sapiens, UniProt P07900+P08238); assay: Degradation of Her2 in SKOV3 cells; assay type: functional, cell-based; settings: sk-ov-3
Heat shock protein HSP90 [2] = molecular target: T1, Heat shock protein HSP90; assay: Upregulation of Hsp70 in SKOV3 cells; assay type: functional, cell-based; settings: sk-ov-3
Heat shock protein HSP90 [3] = molecular target: T1, Heat shock protein HSP90; assay: Degradation of Her2 in SKBR3 cells; assay type: functional, cell-based; settings: sk-br-3
Heat shock protein HSP90 [4] = molecular target: T1, Heat shock protein HSP90; assay: Inhibition of BODIPY-AG binding to human HSP90; assay type: protein assay
Heat shock protein HSP90 [5] = molecular target: T1, Heat shock protein HSP90; assay: Upregulation of Hsp70 in SKBR3 cells; assay type: functional, cell-based; settings: sk-br-3

Row | SMILES | GI50 (SK-OV-3) [µM] | GI50 (SK-BR-3) [µM] | EC50 (Endoplasmin) [µM] | EC50 (Heat shock protein HSP90 [1]) [µM] | EC50 (Heat shock protein HSP90 [2]) [µM] | EC50 (Heat shock protein HSP90 [3]) [µM] | EC50 (Heat shock protein HSP90 [4]) [µM] | EC50 (Heat shock protein HSP90 [5]) [µM]
1 | C=CCNC1=C2C[C@@H](C)C[C@H](OC)[C@H](O)[C@@H](C)/C=C(\C)[C@H](OC(N)=O)[C@@H](OC)/C=C\C=C(/C)C(=O)NC(=CC1=O)C2=O [TANESPIMYCIN] | 0.015 | 0.017 | 0.124 | – | – | – | – | –
2 | C=CCNc1c(O)cc2nc3oc2c1C[C@@H](C)C[C@H](OC)[C@H](O)[C@@H](C)/C=C(\C)[C@H](OC(N)=O)[C@@H](OC)/C=C\C=C\3C.Cl | 0.371 | 1.78 | > 10 | 0.435 | 3.229 | 0.585 | > 10 | –
3 | C=CCn1c(=O)oc2cc3c(O)c(c21)C[C@@H](C)C[C@H](OC)[C@H](O)[C@@H](C)/C=C(\C)[C@H](OC(N)=O)[C@@H](OC)/C=C\C=C(/C)C(=O)N3 | 1.24 | 0.583 | – | 0.742 | 2.283 | 1.046 | 0.603 | 0.384
4 | CO[C@H]1/C=C\C=C(/C)C(=O)Nc2cc(O)c(NC[C@H](O)CO)c(c2O)C[C@@H](C)C[C@H](OC)[C@H](O)[C@@H](C)/C=C(\C)[C@@H]1OC(N)=O.Cl | 1.11 | 0.832 | 0.131 | 0.756 | > 10 | 0.321 | 0.091 | 0.102
5 | CO[C@H]1/C=C\C=C(/C)C(=O)NC2=CC(=O)C(N)=C(C[C@@H](C)C[C@H](OC)[C@H](O)[C@@H](C)/C=C(\C)[C@@H]1OC(N)=O)C2=O | 0.014 | 0.025 | 0.048 | 0.053 | 0.006 | 0.008 | 0.034 | 0.017
6 | Nc1ncnc2c1ncn2[C@@H]1O[C@H](COP(=O)(O)OP(=O)(O)OP(=O)(O)O)[C@@H](O)[C@H]1O [ADENOSINE TRIPHOSPHATE] | – | – | 19 | – | – | – | 1500 | –
7 | CO[C@H]1/C=C\C=C(/C)C(=O)Nc2cc(O)c(N)c(c2O)C[C@@H](C)C[C@H](OC)[C@H](O)[C@@H](C)/C=C(\C)[C@@H]1OC(N)=O.Cl | 0.017 | 0.05 | 0.048 | 0.031 | 0.01 | – | 0.034 | 0.058
8 | CO[C@H]1/C=C\C=C(/C)C(=O)NC2=CC(=O)C(NCCN(C)C)=C(C[C@@H](C)C[C@H](OC)[C@H](O)[C@@H](C)/C=C(\C)[C@@H]1OC(N)=O)C2=O [ALVESPIMYCIN] | 0.032 | 0.029 | 0.065 | – | – | – | – | –
9 | C=CCNc1c(O)cc2c(O)c1C[C@@H](C)C[C@H](OC)[C@H](O)[C@@H](C)/C=C(\C)[C@H](OC(N)=O)[C@@H](OC)/C=C\C=C(/C)C(=O)N2.Cl [RETASPIMYCIN HYDROCHLORIDE] | 0.052 | 0.022 | 0.119 | 0.027 | 0.016 | 0.02 | 0.063 | –
10 | C=CCN1C(=O)COc2cc3c(O)c(c21)C[C@@H](C)C[C@H](OC)[C@H](O)[C@@H](C)/C=C(\C)[C@H](OC(N)=O)[C@@H](OC)/C=C\C=C(/C)C(=O)N3 | 0.726 | 0.739 | – | 0.415 | 1.005 | 0.19 | 0.541 | 0.311
11 | CO[C@H]1/C=C\C=C(/C)C(=O)NC2=CC(=O)C(NC[C@H](O)CO)=C(C[C@@H](C)C[C@H](OC)[C@H](O)[C@@H](C)/C=C(\C)[C@@H]1OC(N)=O)C2=O | 2.02 | 0.724 | 0.072 | 4.585 | 0.853 | 0.141 | 0.066 | 0.14
12 | Nc1ncnc2c1ncn2[C@@H]1O[C@H](COP(=O)(O)OP(=O)(O)O)[C@@H](O)[C@H]1O [ADENOSINE DIPHOSPHATE] | – | – | 21 | – | – | – | 87 | –
